Results on seven compounds are retold here after US20170327536A1, “NEUROTOXIC TARGET FOR AMYLOSPHEROID, METHOD AND MATERIAL FOR REDUCING THE NEUROTOXICITY OF AMYLOSPHEROID, AND USE THEREOF” (TAO Health Life Pharma Co., Ltd., priority 2011, published 2017).

For one assay, the target named is ASPD (Homo sapiens, UniProt P05067). In words: Surface plasmon resonance (SPR), biotinylated AAT peptide on chip, ASPD as ligand. Format: binding. Particulars: peptide solid phase on chip. The text has this:
Biotin was bound to each C-terminal side of the above-mentioned AAT peptides 01 to […] and made into a solid phase on a chip, and a dissociation constant was obtained by surface plasmon resonance (SPR) using ASPD as a ligand.
Background: Surface plasmon resonance follows binding to a sensor surface in real time, without labels.

The target of assay [1] is T1, 105 kDa band (Na+/K+-ATPase α3) (Rattus norvegicus, UniProt P06687).
T1 construct: endogenous in cells; host or cells: rat hippocampus-derived primary cultured neurons (mature)
In words: Far-western blotting of cell extracts. Format: binding. Particulars: extracts of neurons and HEK293 cells; detection with haASD1 (ASPD) or 6E10 (Aβ monomer). The protocol:
Extracts were prepared with RadioImmunoPrecipitation Assay (RIPA) respectively from the rat hippocampus-derived primary cultured neurons (number of culture days shown in FIG. 4) and the HEK293 cells, and protein amounts of the extracts were determined. Then, predetermined amounts of the extracts were subjected to electrophoresis with SDS-PAGE and transcribed to a nitrocellulose membrane, and reacted with native ASPD or an Aβ monomer for a predetermined period of time. The binding of the native ASPD was detected with anti-ASPD antibodies haASD1, and the binding of the Aβ monomer was detected with 6E10 that was commercially available anti-Aβ monomer antibodies (far-western blotting).
Thus, the synthetic ASPD is considered to be equivalent to the native ASPD, and after that, analysis was carried out using the synthetic ASPD.

The subject of assay [2] is mature rat hippocampus-derived primary cultured neurons. The assay is described as follows: Inhibition effect of AAT peptides on ASPD apoptotic activity (neutralization). As to conditions: 4 μM synthetic ASPD, 24 hours; for inhibition effect on ASPD apoptotic activity compared with AAT01: 0.14 μM peptide, FIG. 19. Format: cell-based. As for the experimental part:
Based on the fact that anti-ASPD antibodies bind to ASPD to inhibit interaction between ASPD and NAKα3 that is a target molecule to suppress death of neurons, a peptide having similar effect was searched. For this purpose, ASPD immobilized to a microtiter plate was screened through use of (commercially available) phage display library in which a library of random 12 amino acids was expressed on a virus surface, and a converged sequence was analyzed. […] A peptide having neutralization activity was named as an Anti-AD toxicity (AAT) peptide.
The apoptotic activity was measured 24 hours later and compared with that of a control to which the AAT peptide has not been administered, whereby the inhibition activity was calculated.

Sequence of ASPD (P05067 672-713 limits assumed): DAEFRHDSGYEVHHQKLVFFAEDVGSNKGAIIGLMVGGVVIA

Take `CC(C)C[C@H](NC(=O)[C@H](CC(N)=O)NC(=O)[C@H](Cc1ccc(O)cc1)NC(=O)[C@H](Cc1c[nH]c2ccccc12)NC(=O)[C@H](CC(N)=O)NC(=O)[C@H](Cc1ccccc1)NC(=O)[C@@H](N)Cc1c[nH]cn1)C(=O)N[C@@H](Cc1c[nH]c2ccccc12)C(=O)N[C@@H](CCCNC(=N)N)C(=O)N[C@H](C(=O)N[C@@H](CCC(N)=O)C(=O)N[C@@H](Cc1ccc(O)cc1)C(=O)N[C@@H](CCCCNC(=O)CCCC[C@@H]1SC[C@@H]2NC(=O)N[C@@H]21)C(N)=O)C(C)C` [C-terminal biotinylated AAT01]: at ASPD, the ka is given as 7.64 × 10^3 and the kd is on record as 4.41 × 10^-4.
As for `CC(C)C[C@H](NC(=O)[C@@H](N)Cc1c[nH]cn1)C(=O)N[C@@H](CC(N)=O)C(=O)N[C@@H](Cc1c[nH]c2ccccc12)C(=O)N[C@@H](Cc1c[nH]c2ccccc12)C(=O)N[C@@H](Cc1c[nH]cn1)C(=O)N[C@@H](CO)C(=O)N[C@@H](Cc1c[nH]c2ccccc12)C(=O)N[C@@H](Cc1ccc(O)cc1)C(=O)N1CCC[C@H]1C(=O)N[C@@H](C)C(=O)N[C@@H](CCCNC(=N)N)C(=O)N[C@@H](CCCCNC(=O)CCCC[C@@H]1SC[C@@H]2NC(=O)N[C@@H]21)C(N)=O` [C-terminal biotinylated AAT02], at ASPD, the ka is recorded as 5.60 × 10^3 and the kd is 4.62 × 10^-4.
For `CC(C)C[C@H](NC(=O)[C@H](Cc1c[nH]c2ccccc12)NC(=O)[C@H](CC(N)=O)NC(=O)[C@H](CC(C)C)NC(=O)[C@@H](N)Cc1c[nH]cn1)C(=O)N[C@@H](CO)C(=O)N[C@@H](Cc1c[nH]c2ccccc12)C(=O)N[C@@H](Cc1ccccc1)C(=O)N1CCC[C@H]1C(=O)N[C@@H](CO)C(=O)N[C@@H](CCCNC(=N)N)C(=O)N[C@@H](Cc1c[nH]cn1)C(=O)N[C@@H](CCCCNC(=O)CCCC[C@@H]1SC[C@@H]2NC(=O)N[C@@H]21)C(N)=O` [C-terminal biotinylated AAT03], in that order: 4.96 × 10^3 and 4.39 × 10^-4.
On to “Aβ monomer: peptide cleaved from amyloid precursor protein (APP) with β- and γ-secretase”, for which the “binding to 105 kDa band in far-western blotting” value in assay [1] is “did not bind to the band”.
With “HFNW (ASPD-interacting motif/peptide) [AAT06]”, in assay [2] (2.8 μM peptide, FIG. 20), the “inhibition effect on ASPD apoptotic activity compared with AAT04” value is listed as “equal to or higher than that of the AAT04”.
For “HFNWD (ASPD-interacting motif/peptide) [AAT04]”, the “inhibition effect on ASPD apoptotic activity compared with AAT01” value in assay [2] was “equal to or more than that of the AAT01”.
Turning to “HFNWDW (ASPD-interacting motif/peptide) [AAT05]”, the “inhibition effect on ASPD apoptotic activity compared with AAT01” value in assay [2] is reported as “equal to or more than that of the AAT01”.
